Experimental data as given in BindingDB's records for doi:10.1021/acs.jnatprod.0c01182 (Chinese Academy of Sciences, 2021).

Legend:
[1] = Reversal of P-gp-mediated multidrug resistance in human KB/VCR cells assessed as potentiation of vincristine-induced antiproliferative activity by measuring vincristine IC50 at 20 uM measured after 72 hrs by CCK8 assay (Rvb = 0.78 uM)
[2] = Reversal of P-gp-mediated multidrug resistance in human KB/VCR cells assessed as potentiation of vincristine-induced antiproliferative activity by measuring vincristine IC50 at 2 uM measured after 72 hrs by CCK8 assay (Rvb = 0.51 uM)

Work on `CC(=O)O[C@@H]1[C@@H]2[C@@H](OC(C)=O)[C@]3(OC2(C)C)[C@H](C)CC[C@H](OC(C)=O)[C@@]3(C)[C@@H]1OC(=O)c1ccccc1` yielded an IC50 [1] of less than 8 nM and an IC50 [2] of 200 nM.

`CC(=O)OC[C@]12[C@H](OC(C)=O)C(=O)[C@@H]3[C@@H](OC(C)=O)[C@]1(OC3(C)C)[C@H](C)[C@@H](O)[C@H](OC(C)=O)[C@@H]2OC(C)=O` gave an IC50 [1] of 390 nM and an IC50 [2] of 550 nM.

`CC(=O)OC[C@]12[C@H](OC(C)=O)C(=O)[C@@H]3[C@@H](O)[C@]1(OC3(C)C)[C@H](C)[C@@H](O)[C@H](OC(C)=O)[C@@H]2OC(C)=O` gave an IC50 [1] of 530 nM and an IC50 [2] of 500 nM.

Compound `CC(=O)O[C@@H]1[C@H]2[C@H](O)[C@H](OC(=O)c3ccccc3)[C@]3(C)[C@@H](OC(C)=O)[C@H](O)C[C@@H](C)[C@@]13OC2(C)C` has an IC50 [1] of 310 nM and an IC50 [2] of 430 nM.

In the case of `CC(=O)OC[C@]12[C@H](OC(C)=O)C(=O)[C@@H]3[C@@H](OC(C)=O)[C@]1(OC3(C)C)[C@H](C)C[C@H](O)[C@@H]2OC(C)=O`, the IC50 [1] is reported as 330 nM and the IC50 [2] is reported as 480 nM.

With `CCCCCC(=O)O[C@@H]1[C@@H]2[C@@H](OC(C)=O)[C@]3(OC2(C)C)[C@H](C)C[C@@H](OC(C)=O)[C@H](OC(C)=O)[C@@]3(C)[C@H]1OC(=O)c1ccccc1` the IC50 [1] was 21 nM and the IC50 [2] was 350 nM.

Work on `CC(=O)OC[C@]12[C@H](OC(C)=O)C(=O)[C@@H]3[C@@H](O)[C@]1(OC3(C)C)[C@H](C)[C@@H](OC(C)=O)[C@H](OC(C)=O)[C@@H]2OC(C)=O` yielded an IC50 [1] of 260 nM and an IC50 [2] of 470 nM.

Compound `CC(=O)O[C@H]1[C@@H]2[C@@H](OC(C)=O)[C@]3(OC2(C)C)[C@H](C)C[C@@H](OC(C)=O)[C@H](OC(C)=O)[C@@]3(C)[C@H]1OC(=O)c1ccccc1` has an IC50 [1] of 56 nM and an IC50 [2] of 190 nM.

With `CC(=O)O[C@H]1[C@@H]2[C@@H](OC(=O)/C=C/c3ccccc3)[C@]3(OC2(C)C)[C@H](C)C[C@@H](OC(C)=O)[C@H](OC(C)=O)[C@@]3(C)[C@H]1OC(=O)c1ccccc1` the IC50 [1] was less than 8 nM and the IC50 [2] was 100 nM.

`CC(=O)O[C@@H]1[C@@H]2[C@@H](OC(C)=O)[C@]3(OC2(C)C)[C@H](C)C[C@@H](OC(C)=O)[C@H](OC(C)=O)[C@@]3(C)[C@@H]1OC(=O)c1ccccc1` gave an IC50 [1] of 22 nM and an IC50 [2] of 150 nM.

With `CC(=O)O[C@@H]1[C@@H]2[C@@H](OC(C)=O)[C@]3(OC2(C)C)[C@H](C)C[C@H](OC(=O)/C=C/c2ccccc2)[C@H](OC(C)=O)[C@@]3(C)[C@@H]1OC(=O)c1ccccc1` the IC50 [1] was 26 nM and the IC50 [2] was 100 nM.

With `CC(=O)O[C@H]1[C@@H]2[C@@H](OC(=O)c3cccnc3)[C@]3(OC2(C)C)[C@H](C)C[C@H](OC(C)=O)[C@@H](OC(C)=O)[C@@]3(C)[C@H]1OC(=O)c1ccccc1` the IC50 [1] was less than 8 nM and the IC50 [2] was 64 nM.

`CC(=O)O[C@H]1CC[C@@H](C)[C@]23OC(C)(C)[C@H](C[C@H](OC(=O)c4ccccc4)[C@]12C)[C@H]3OC(C)=O` gave an IC50 [1] of 15 nM and an IC50 [2] of 210 nM.

Compound `CC(=O)O[C@@H]1[C@@H]2[C@@H](OC(C)=O)[C@]3(OC2(C)C)[C@H](C)CC[C@H](OC(C)=O)[C@@]3(C)[C@H]1OC(=O)c1ccccc1` has an IC50 [1] of 34 nM and an IC50 [2] of 240 nM.

`CC(=O)O[C@@H]1C[C@@H](C)[C@]23OC(C)(C)[C@H]([C@@H](O)[C@H](OC(=O)c4ccccc4)[C@@]2(C)[C@H]1OC(C)=O)[C@H]3OC(=O)/C=C/c1ccccc1` showed an IC50 [2] of 48 nM.

In the case of `CC(=O)O[C@H]1[C@@H]2[C@@H](OC(=O)/C=C/c3ccccc3)[C@]3(OC2(C)C)[C@H](C)C[C@H](O)[C@H](OC(C)=O)[C@@]3(C)[C@H]1OC(=O)c1ccccc1`, the IC50 [2] is reported as 37 nM.

Compound `CC(=O)O[C@H]1CC[C@@H](C)[C@]23OC(C)(C)[C@H](C[C@H](OC(=O)c4ccccc4)[C@]12C)[C@H]3OC(=O)c1ccccc1` has an IC50 [2] of 100 nM.

`CC(=O)O[C@@H]1C[C@@H](C)[C@]23OC(C)(C)[C@H](C[C@H](OC(=O)c4ccccc4)[C@]2(C)[C@H]1OC(C)=O)[C@H]3OC(=O)/C=C/c1ccccc1` gave an IC50 [2] of 58 nM.

In the case of `COc1cc2c(cc1OC)CN(CCc1ccc(-n3nnc(-c4cc(OC)c(OC)cc4NC(=O)c4cc(=O)c5ccccc5o4)n3)cc1)CC2` [Encequidar], the IC50 [2] is reported as 16 nM.
